Measurements: article PMC8767159, “Multiparameter Optimization of Trypanocidal Cruzain Inhibitors With In Vivo Activity and Favorable Pharmacokinetics” (Frontiers in Pharmacology, 2022)
Where two headings read alike, the source gives them in different places.

Key:
[1] = Cytotoxicity MTS assay in HFF-1 fibroblasts; type: cell-based; conditions: human HFF-1 fibroblasts
Protocol: The synthesized compounds were evaluated for their cytotoxicity against HFF-1 cells using the MTS assay (Promega, Madison, WI) ([Barltrop et al., 1991]) as previously described ([Ferreira et al., 2019]). HFF-1 fibroblasts were plated at 2 × 10^3/well in 96-well culture plates in RPMI 1640 without phenol red enriched with 10% FCS and incubated overnight at 37°C and 5% CO2. Next, 7 concentrations (0.1–100 µM) of the compounds were added in 3-fold serial dilutions, each concentration in triplicate, and the plates were incubated for 72 h at 37°C and 5% CO2. Next, 20 µl of MTS was added to each well, and the plates were incubated for an additional 4 h at 37°C and 5% CO2. The absorbance was measured at 490 nm using a spectrophotometer, and the data were transferred to SigmaPlot 10.0 (Systat Software Inc., Erkrath, Germany) to determine the IC50 values. Doxorubicin (Sigma–Aldrich) was used as a positive control, and untreated wells (100% growth) were used as negative controls in all plates. All compounds were tested in two independent assays.

[2] = In vivo pharmacokinetics in male CD1 mice; design: species or system mouse; conditions: for C0 / AUC / half-life / Vd / Cmax / Tmax / bioavailability: plasma; for clearance: plasma clearance, read-out: CLp (L/h/kg) IV (converted); for bioavailability: oral bioavailability
Protocol: The in vivo pharmacokinetic profiles of the compounds were determined using male CD1 mice weighing […] ([Davies and Morris, 1993]; [Liu and Jia, 2007]). The compounds were administered in a single dose orally (0.5 mg/kg) and intravenously (0.5 mg/kg). Stock solutions of the compounds in DMSO were diluted in Tween 80, PEG-400, and D5W (5% dextrose in water) at a ratio of 2:5:20:73 (v/v). The injection volume was 10 ml/kg. The remaining plasma concentration was monitored over time by LC-MS/MS by collecting blood samples (40 μl) at 10, 25, and 50 min and 1, 3, 6, 9, 12, and 24 h after administration of the compound.
For the biotransformation experiments and analysis of metabolites in microsomes, an Ultra-High-Pressure Liquid Chromatography instrument (UHPLC, Thermo Accela, Waltham, MA) ([Spaggiari et al., 2014]) connected to an automatic sample injector and a 1250 series pump was used. The UHPLC system was connected to a Thermo Fisher (Waltham, MA) LTQ Orbitrap mass spectrometer. For all other analyses, an AB Sciex Triple Quad 5500 coupled to a UHPLC equipped with a UV 1290 diode detector (Agilent Technologies, Santa Clara, CA) and a CTC PAL self-collecting system (LEAP Technologies, Carrboro, NC) was used. Q1 MS positive ion mode (300–500 Da) was used to detect the ions of the parent compounds. The UV detector was operated in spectral mode (250–280 nm). A Hypersil Gold C18 (2.1 mm × 100 mm, 1.9 µm, Thermo Fisher) HPLC column was used. The mobile phases were solvent A (0.1% formic acid in water) and solvent B (0.1% formic acid in ACN). The flow was adjusted to 0.55 ml/min, and the injection volume was adjusted to […]. The gradient started with 1% solvent B for 0.4 min, reached 40% (solvent B) in 2.3 min and 95% (solvent B) in 0.67 min, was maintained for 0.5 min, and returned to the initial condition of 1%. This condition was maintained for 1 min before injection of the next sample. The peak area ratio (peak area of the test compounds/peak area of the control compounds) was converted to the percentage of remaining compound, with the 0 min time point ratio set to 100%. T½ and CLint were calculated from the percentage of remaining compound versus the incubation time. From the resulting function, the slope (k) was determined. The equations T1/2 (min) = ln(2)/k and CLint in vitro (μL/min/mg) = k*1000/0.25 were used to determine T½ and CLint.

[3] = Table 6, plasma clearance corrected for the fraction unbound, IV
[4] = mouse, Table 6, IV 0.5 mg/kg, male CD1 mice
[5] = mouse, Table 6, IV 0.5 mg/kg, male CD1 mice, read-out: AUC (ng*h/ml) IV
[6] = mouse, Table 6, IV 0.5 mg/kg, male CD1 mice, read-out: T1/2 (h) IV (converted)
[7] = mouse, Table 6, IV 0.5 mg/kg, male CD1 mice, read-out: V SS (L/kg) IV
[8] = mouse, Table 6, PO 0.5 mg/kg, male CD1 mice
[9] = mouse, 0.5 mg/kg, Table 6, male CD1 mice
[10] = mouse, Table 6, PO 0.5 mg/kg, male CD1 mice, read-out: AUC (ng*h/ml) PO
[11] = mouse, Table 6, PO 0.5 mg/kg, male CD1 mice, read-out: T1/2 (h) PO (converted)
[12] = Table S6, plasma clearance corrected for the fraction unbound
[13] = male, CD1, mouse, 0.5 mg/kg, Table S6, IV, mice
[14] = male, CD1, mouse, 0.5 mg/kg, Table S6, IV, mice, read-out: AUC (ng*h/mL) IV
[15] = male, CD1, mouse, 0.5 mg/kg, Table S6, IV, mice, read-out: T1/2(h) IV (converted)
[16] = male, CD1, mouse, 0.5 mg/kg, Table S6, IV, mice, read-out: VSS (L/kg) IV
[17] = male, CD1, mouse, 0.5 mg/kg, Table S6, PO, mice
[18] = male, CD1, mouse, 0.5 mg/kg, Table S6, PO, mice, read-out: AUC (ng*h/mL) PO
[19] = male, CD1, mouse, 0.5 mg/kg, Table S6, PO, mice, read-out: T1/2 (h) PO (converted)
[20] = male, CD1, mouse, 0.5 mg/kg, Table S6, mice

Structure (SMILES)	IC50 at 72 h [1] [µM]	CLpu [2, 3] [L/h/kg]	C0 [2, 4] [ng/mL]	AUC [2, 5] [ng·h/mL]	half-life [2, 6] [h]	Vd [2, 7] [L/kg]	Cmax [2, 8] [ng/mL]	Tmax [2, 8] [min]	clearance [2, 4] [L/h/kg]	bioavailability [2, 9] [%]	further results
C=CCCn1c(CCNC(=O)COc2ccccc2Cl)nc2ccccc21 [Compound 38]	> 100	430.5	126	82	0.4	3.3	2.5	18	6.2		
O=C(COc1ccccc1)NCCc1nc2ccccc2n1CCCOc1ccccc1 [Compound 24]	> 30										
O=C(CCc1ccccc1Br)NCCc1nc2ccccc2[nH]1 [Compound 36]		231.5	144	55	0.5	7.2			9.5	0	
O=C(COc1ccc(Br)cc1)NCCc1nc2ccccc2[nH]1 [Compound 33]	> 100	60.6	658	160	0.2	0.6	71.7	18	9.5	35.2	AUC [2, 10]: 56.5 ng·h/mL; half-life [2, 11]: 0.4 h
N#Cc1ccccc1OCC(=O)NCCc1nc2ccccc2[nH]1 [Compound 31]		29.9	232	67	0.2	1.9	12.8	18	4.6		
O=C(COc1ccccc1)NCCc1nc2ccccc2[nH]1 [Compound 1]	> 100										CLpu [2, 12]: 17.39 L/h/kg; clearance [2, 13]: 4.01 L/h/kg; C0 [2, 13]: 988 ng/mL; AUC [2, 14]: 250 ng·h/mL; half-life [2, 15]: 0.21 h; Vd [2, 16]: 1.02 L/kg; Cmax [2, 17]: 21 ng/mL; Tmax [2, 17]: 19.2 min; AUC [2, 18]: 22.5 ng·h/mL; half-life [2, 19]: 0.73 h; bioavailability [2, 20]: 9%
O=C(COc1ccccc1)NCCc1nc2ccccc2n1CCOc1ccccc1 [Compound 20]	> 30										
Cc1ccccc1OCC(=O)NCCc1nc2ccccc2o1 [Compound 37]	> 100	187.1	169	53	0.2	2.4	14.6	18	9.5		
O=C(COc1ccccc1Br)NCCc1nc2ccccc2[nH]1 [Compound 18]	> 100	103.7	283	84	0.2	1.8		18	3.2	1.2	AUC [2, 10]: 1 ng·h/mL
C=CCCn1c(CCNC(=O)COc2ccccc2)nc2ccccc21 [Compound 27]	> 100										
CC(=O)Nc1ccc(OCC(=O)NCCc2nc3ccccc3[nH]2)cc1 [Compound 2]	> 100										CLpu [2, 12]: 4.16 L/h/kg; clearance [2, 13]: 2.03 L/h/kg; C0 [2, 13]: 1040 ng/mL; AUC [2, 14]: 506 ng·h/mL; half-life [2, 15]: 0.63 h; Vd [2, 16]: 1.03 L/kg; Cmax [2, 17]: 54 ng/mL; Tmax [2, 17]: 49.8 min; AUC [2, 18]: 125 ng·h/mL; half-life [2, 19]: 1.21 h; bioavailability [2, 20]: 25%
O=C(COc1cccc([N+](=O)[O-])c1)NCCc1nc2ccccc2[nH]1 [Compound 8]	> 100										CLpu [2, 12]: 23.77 L/h/kg; clearance [2, 13]: 3.31 L/h/kg; C0 [2, 13]: 925 ng/mL; AUC [2, 14]: 322 ng·h/mL; half-life [2, 15]: 0.21 h; Vd [2, 16]: 1.04 L/kg; Cmax [2, 17]: 61 ng/mL; Tmax [2, 17]: 18.6 min; AUC [2, 18]: 44.6 ng·h/mL; half-life [2, 19]: 0.42 h; bioavailability [2, 20]: 14%
O=C(COc1ccccc1)NCCc1nc2ccccc2n1Cc1ccccc1 [Compound 26]	> 100										
O=C(COc1ccc2ccccc2c1Br)NCCc1nc2ccccc2[nH]1 [Compound 34]	> 30		255	116	0.3	1.9	7.6	18	7.6	5.6	CLpu (L/h/kg) [2, 3]: 2,874.7 L/h/kg; AUC [2, 10]: 6.5 ng·h/mL; half-life [2, 11]: 0.6 h
O=C(COc1ccc2ccccc2c1)NCCc1nc2ccccc2[nH]1 [Compound 35]	> 100	334.6	228	86	0.2	2	3.7	18	5.8	2	AUC [2, 10]: 1.7 ng·h/mL; half-life [2, 11]: 0.2 h
O=C(COc1ccc(NC(=O)CCCO)cc1)NCCc1nc2ccccc2[nH]1 [Compound 5]	> 100										
